Results on 27 compounds are retold here after patent publication US20070082880A1 (priority 2005, published 2007).

Usually melting point stands for the temperature of the solid-liquid transition. One may read the IC50 as the concentration needed to halve the response being measured. Read a low IC50 as higher potency.

Structures can show the parent of a compound that is named as a salt. A value given as a limit tells only on which side of the number the result lay.

Tested on in one series: not given
Experiment: not given
Details: not given
`Cl.N#Cc1cnc2sc(I)cc2c1Nc1ccc2[nH]ccc2c1` came in with a melting point of 250 to 252 °C.

The compound `Cl.N#Cc1cnc2sc(I)cc2c1Nc1cccc2[nH]ccc12` showed a melting point of more than 245 °C.

As to `Br.N#Cc1cnc2scc(Br)c2c1Nc1ccc2[nH]ccc2c1`, the melting point lay in the range of 249 to 251 °C.

`Cc1c(Nc2c(C#N)cnc3sc(C#C[Si](C)(C)C)cc23)ccc2[nH]ccc12` yielded a melting point of 258 to 260 °C.

For the compound `Cc1c(Nc2c(C#N)cnc3sc(/C=C/CN4CCOCC4)cc23)ccc2[nH]ccc12` (as salt: HCl) [Compound 275, 4-[(4-methyl-1H-indol-5-yl)amino]-2-[(1E)-3-morpholin-4-ylprop-1-en-1-yl]thieno[2,3-b]pyridine-5-carbonitrile], the melting point was 230 °C (dec.).

As for `Cc1c(Nc2c(C#N)cnc3sc(C4CCN(Cc5ccccc5)C4)cc23)ccc2[nH]ccc12` (stereo not shown) (as salt: HCl) [Compound 479, 2-(1-benzylpyrrolidin-3-yl)-4-[(4-methyl-1H-indol-5-yl)amino]thieno[2,3-b]pyridine-5-carbonitrile], the melting point was 185 °C (dec.).

Consider `N#Cc1cnc2sc(I)cc2c1Nc1cccc2cc[nH]c12` [Compound 108, 4-(1H-indol-7-ylamino)-2-iodothieno[2,3-b]pyridine-5-carbonitrile], for which the melting point was more than 245 °C.

For the compound `N#Cc1cnc2sc(-c3ccccc3)cc2c1NCc1ccc2[nH]ccc2c1` [Compound 124, 4-(1H-indol-5-ylmethylamino)-2-phenylthieno[2,3-b]pyridine-5-carbonitrile], the melting point was in the range of 219 to 221 °C.

Turning to `N#Cc1cnc2sc(-c3ccc(C=O)cc3)cc2c1Nc1cccc2[nH]ccc12` [Compound 136, 2-(4-formylphenyl)-4-(1H-indol-4-ylamino)thieno[2,3-b]pyridine-5-carbonitrile], the melting point was more than 245 °C.

For the compound `N#Cc1cnc2sc(-c3cccc(C=O)c3)cc2c1Nc1cccc2[nH]ccc12` [Compound 139, 2-(3-formylphenyl)-4-(1H-indol-4-ylamino)thieno[2,3-b]pyridine-5-carbonitrile], the melting point is more than 245 °C.

For the compound `N#Cc1cnc2sc(-c3ccccc3C=O)cc2c1Nc1cccc2[nH]ccc12` [Compound 142, 2-(2-formylphenyl)-4-(1H-indol-4-ylamino)thieno[2,3-b]pyridine-5-carbonitrile], the melting point lay within 137 to 139 °C.

`N#Cc1cnc2sc(-c3cccc(C=O)c3)cc2c1Nc1ccc2[nH]ccc2c1` [Compound 144, 2-(3-formylphenyl)-4-(1H-indol-5-ylamino)thieno[2,3-b]pyridine-5-carbonitrile] registered a melting point of 221 to 223 °C.

For the compound `N#Cc1cnc2sc(-c3ccccc3C=O)cc2c1Nc1ccc2[nH]ccc2c1` [Compound 184, 2-(2-formylphenyl)-4-(1H-indol-5-ylamino)thieno[2,3-b]pyridine-5-carbonitrile], the melting point was 222 to 224 °C.

The target in another series is T1, human PKCθ full length enzyme (Homo sapiens, UniProt Q04759).
T1 construct: human PKCθ full length enzyme (Panvera Catalog No. P2996); purchased Panvera P2996
T1 sequence (Q04759 whole entry): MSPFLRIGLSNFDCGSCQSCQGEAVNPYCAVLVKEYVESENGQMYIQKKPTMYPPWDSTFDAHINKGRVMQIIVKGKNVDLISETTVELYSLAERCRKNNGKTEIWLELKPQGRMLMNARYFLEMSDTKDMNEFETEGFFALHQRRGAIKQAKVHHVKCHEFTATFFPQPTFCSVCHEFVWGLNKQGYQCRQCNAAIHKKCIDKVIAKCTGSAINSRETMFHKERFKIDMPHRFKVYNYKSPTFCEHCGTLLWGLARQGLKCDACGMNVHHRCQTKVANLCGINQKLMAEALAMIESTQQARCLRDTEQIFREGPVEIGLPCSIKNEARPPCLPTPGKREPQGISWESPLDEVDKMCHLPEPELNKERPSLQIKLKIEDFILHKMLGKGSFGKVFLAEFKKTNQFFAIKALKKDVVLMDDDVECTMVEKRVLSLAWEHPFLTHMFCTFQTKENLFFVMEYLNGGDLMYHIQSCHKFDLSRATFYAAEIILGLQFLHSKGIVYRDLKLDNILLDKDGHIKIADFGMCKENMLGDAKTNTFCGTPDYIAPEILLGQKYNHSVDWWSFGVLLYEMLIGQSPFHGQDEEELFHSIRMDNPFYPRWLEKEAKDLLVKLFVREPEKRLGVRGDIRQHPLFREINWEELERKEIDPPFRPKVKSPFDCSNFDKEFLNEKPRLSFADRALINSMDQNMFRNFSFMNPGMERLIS
The series is described as follows: PKCθ IMAP Assay. To be noted: average value when one or more samples were tested; ATP 6 uM, PKCθ 1 nM. The class given is biochemical. In outline:
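IMAP fluorescence polarization after 20 min with binding beads measured phosphorylation of 100 nM 5FAM-peptide. Reactions held 1 nM full-length human PKCθ, 6 uM ATP, 5% DMSO and DTT-containing buffer, 25 min at room temperature. Compounds tested as 2:1 serial dilutions; controls lacked ATP or enzyme.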
Turning to `N#Cc1cnc2sc(-c3ccccc3)cc2c1NCc1ccc2[nH]ccc2c1` [Compound 124, 4-(1H-indol-5-ylmethylamino)-2-phenylthieno[2,3-b]pyridine-5-carbonitrile], the half-maximal inhibitory concentration (IC50) was determined as 3700 nM.

In turn, `COc1ccc(C=O)c(-c2cc3c(Nc4ccc5[nH]ccc5c4C)c(C#N)cnc3s2)c1` [Compound 514, 2-(2-formyl-5-methoxyphenyl)-4-[(4-methyl-1H-indol-5-yl)amino]thieno[2,3-b]pyridine-5-carbonitrile] gave an IC50 of 71 nM.

Compound `COc1ccc(CN(C)C)c(-c2cc3c(Nc4ccc5[nH]ccc5c4C)c(C#N)cnc3s2)c1` [Compound 515, 2-{2-[(dimethylamino)methyl]-5-methoxyphenyl}-4-[(4-methyl-1H-indol-5-yl)amino]thieno[2,3-b]pyridine-5-carbonitrile] gave an IC50 of 16 nM.

In turn, `CC(C)c1c(-c2cccc(CN(C)C)c2)sc2ncc(C#N)c(Nc3ccc4[nH]ccc4c3)c12` [Compound 516, 2-{3-[(dimethylamino)methyl]phenyl}-4-(1H-indol-5-ylamino)-3-isopropylthieno[2,3-b]pyridine-5-carbonitrile] came in with an IC50 of 1210 nM.

On to `COc1ccc(CNCCO)cc1-c1cc2c(Nc3ccc4[nH]ccc4c3C)c(C#N)cnc2s1` [Compound 517, 2-(5-{[(2-hydroxyethyl)amino]methyl}-2-methoxyphenyl)-4-[(4-methyl-1H-indol-5-yl)amino]thieno[2,3-b]pyridine-5-carbonitrile], for which 2 nM corresponded to half-maximal inhibition (IC50).

`Cc1c(Nc2c(C#N)cnc3sc(-c4ccc(F)c(C(=O)N(C)C)c4)cc23)ccc2[nH]ccc12` [Compound 518, 5-{5-cyano-4-[(4-methyl-1H-indol-5-yl)amino]thieno[2,3-b]pyridin-2-yl}-2-fluoro-N,N-dimethylbenzamide] yielded an IC50 of 59 nM.

For `Cc1c(Nc2c(C#N)cnc3sc(-c4cccc(N5CCCS5(=O)=O)c4)cc23)ccc2[nH]ccc12` [Compound 519, 2-[3-(1,1-dioxidoisothiazolidin-2-yl)phenyl]-4-[(4-methyl-1H-indol-5-yl)amino]thieno[2,3-b]pyridine-5-carbonitrile], the midpoint of inhibition, the IC50, lay at 49 nM.

`Cc1c(Nc2c(C#N)cnc3sc(-c4ccc5[nH]ccc5c4)cc23)ccc2[nH]ccc12` [Compound 520, 2-(1H-indol-5-yl)-4-[(4-methyl-1H-indol-5-yl)amino]thieno[2,3-b]pyridine-5-carbonitrile] registered an IC50 of 74 nM.

`Cc1c(Nc2c(C#N)cnc3sc(-c4ccc5cc[nH]c5c4)cc23)ccc2[nH]ccc12` [Compound 521, 2-(1H-indol-6-yl)-4-[(4-methyl-1H-indol-5-yl)amino]thieno[2,3-b]pyridine-5-carbonitrile] yielded an IC50 of 37 nM.

In the case of `Cc1ccc(S(=O)(=O)n2ccc3c(Cl)c(Nc4c(C#N)cnc5sc(I)cc45)cnc32)cc1` [Compound 522, 4-({4-chloro-1-[(4-methylphenyl)sulfonyl]-1H-pyrrolo[2,3-b]pyridin-5-yl}amino)-2-iodothieno[2,3-b]pyridine-5-carbonitrile], the half-maximal inhibitory concentration (IC50) is 14100 nM.

For the compound `Cc1c(Nc2c(C#N)cnc3sc(-c4cccnn4)cc23)ccc2[nH]ccc12` [Compound 523, 4-[(4-methyl-1H-indol-5-yl)amino]-2-pyridazin-3-ylthieno[2,3-b]pyridine-5-carbonitrile], half-maximal inhibition (IC50) required 15 nM.

Compound `N#Cc1cnc2sc(-c3ccccc3)cc2c1Nc1cnc2[nH]ccc2c1Cl` [Compound 524, 4-[(4-chloro-1H-pyrrolo[2,3-b]pyridin-5-yl)amino]-2-phenylthieno[2,3-b]pyridine-5-carbonitrile] had a concentration for half-maximal inhibition (IC50) of 48 nM.

Turning to `COc1c(C=O)cccc1-c1cc2c(Nc3ccc4[nH]ccc4c3C)c(C#N)cnc2s1` [Compound 525, 2-(3-formyl-2-methoxyphenyl)-4-[(4-methyl-1H-indol-5-yl)amino]thieno[2,3-b]pyridine-5-carbonitrile], the midpoint of inhibition, the IC50, lay at 15 nM.

`COc1c(CN(C)C)cccc1-c1cc2c(Nc3ccc4[nH]ccc4c3C)c(C#N)cnc2s1` [Compound 526, 2-{3-[(dimethylamino)methyl]-2-methoxyphenyl}-4-[(4-methyl-1H-indol-5-yl)amino]thieno[2,3-b]pyridine-5-carbonitrile] displayed an IC50 of 12 nM.

Compound `Cc1c(Nc2c(C#N)cnc3sc(-c4ccnn4C)cc23)ccc2[nH]ccc12` [Compound 527, 4-[(4-methyl-1H-indol-5-yl)amino]-2-(1-methyl-1H-pyrazol-5-yl)thieno[2,3-b]pyridine-5-carbonitrile] returned an IC50 of 35 nM.
